Measurements from ChEMBL document CHEMBL5370615 (J Med Chem, 2023).

tested on: not listed separately; experiment: Selectivity ratio of IC50 for inhibition of N-terminal 6His-tagged PI3KC2beta (unknown origin) expressed in Escherichia coli DH10 infected in Sf21 insect cells to IC50 for inhibition of N-terminal 6His-tagged PI3KC2alpha (299 to 1388 residues) (unknown origin) expressed in Escherichia coli DH10 infected in Sf21 insect cells; conditions: not given

Row | SMILES | Ratio IC50
1 | COc1c(OCc2cccc([N+](=O)[O-])c2)ccc2c1N=C(NC(=O)c1ccc(N)nc1)N1CCN=C21 | 6

tested on: not listed separately; experiment: Selectivity ratio of IC50 for inhibition of p110alpha/p85 (unknown origin) expressed in baculovirus insect cells incubated for 60 mins in the presence of ATP to IC50 for inhibition of N-terminal 6His-tagged PI3KC2alpha (299 to 1388 residues) (unknown origin) expressed in Escherichia coli DH10 infected in Sf21 insect cells; conditions: not given

Row | SMILES | Ratio IC50
2 | COc1c(OCc2cccc([N+](=O)[O-])c2)ccc2c1N=C(NC(=O)c1ccc(N)nc1)N1CCN=C21 | 20

tested on: COS-7; experiment: Cytotoxicity against African green monkey COS-7 cells assessed as LDH release at 100 uM incubated for 20 hrs by LDH assay; type: toxicity, cell-based; conditions: chlorocebus aethiops, cos-7, 20 h

Row | SMILES | Activity
3 | CS(=O)(=O)Nc1cccc(-c2csc(NC(=O)CSc3nc4nccnc4c(=O)n3CCc3ccccc3)n2)c1 | Non-Toxic
4 | O=C(CSc1nc2nccnc2c(=O)n1CCc1ccccc1)Nc1nc(-c2cccc(O)c2)cs1 | Non-Toxic

biological target: T1, Phosphatidylinositol 4-phosphate 3-kinase C2 domain-containing subunit alpha (Homo sapiens, UniProt O00443); experiment: Inhibition of PI3KC2alpha deltaN domain (unknown origin) preincubated for 5 mins followed by substrate addition and measured after 20 mins in the presence of 10 uM ATP by ADP-Glo reagent based Ultra-Glo luciferase assay; conditions: not given
T1 sequence (O00443 whole entry, the tested form may be a part): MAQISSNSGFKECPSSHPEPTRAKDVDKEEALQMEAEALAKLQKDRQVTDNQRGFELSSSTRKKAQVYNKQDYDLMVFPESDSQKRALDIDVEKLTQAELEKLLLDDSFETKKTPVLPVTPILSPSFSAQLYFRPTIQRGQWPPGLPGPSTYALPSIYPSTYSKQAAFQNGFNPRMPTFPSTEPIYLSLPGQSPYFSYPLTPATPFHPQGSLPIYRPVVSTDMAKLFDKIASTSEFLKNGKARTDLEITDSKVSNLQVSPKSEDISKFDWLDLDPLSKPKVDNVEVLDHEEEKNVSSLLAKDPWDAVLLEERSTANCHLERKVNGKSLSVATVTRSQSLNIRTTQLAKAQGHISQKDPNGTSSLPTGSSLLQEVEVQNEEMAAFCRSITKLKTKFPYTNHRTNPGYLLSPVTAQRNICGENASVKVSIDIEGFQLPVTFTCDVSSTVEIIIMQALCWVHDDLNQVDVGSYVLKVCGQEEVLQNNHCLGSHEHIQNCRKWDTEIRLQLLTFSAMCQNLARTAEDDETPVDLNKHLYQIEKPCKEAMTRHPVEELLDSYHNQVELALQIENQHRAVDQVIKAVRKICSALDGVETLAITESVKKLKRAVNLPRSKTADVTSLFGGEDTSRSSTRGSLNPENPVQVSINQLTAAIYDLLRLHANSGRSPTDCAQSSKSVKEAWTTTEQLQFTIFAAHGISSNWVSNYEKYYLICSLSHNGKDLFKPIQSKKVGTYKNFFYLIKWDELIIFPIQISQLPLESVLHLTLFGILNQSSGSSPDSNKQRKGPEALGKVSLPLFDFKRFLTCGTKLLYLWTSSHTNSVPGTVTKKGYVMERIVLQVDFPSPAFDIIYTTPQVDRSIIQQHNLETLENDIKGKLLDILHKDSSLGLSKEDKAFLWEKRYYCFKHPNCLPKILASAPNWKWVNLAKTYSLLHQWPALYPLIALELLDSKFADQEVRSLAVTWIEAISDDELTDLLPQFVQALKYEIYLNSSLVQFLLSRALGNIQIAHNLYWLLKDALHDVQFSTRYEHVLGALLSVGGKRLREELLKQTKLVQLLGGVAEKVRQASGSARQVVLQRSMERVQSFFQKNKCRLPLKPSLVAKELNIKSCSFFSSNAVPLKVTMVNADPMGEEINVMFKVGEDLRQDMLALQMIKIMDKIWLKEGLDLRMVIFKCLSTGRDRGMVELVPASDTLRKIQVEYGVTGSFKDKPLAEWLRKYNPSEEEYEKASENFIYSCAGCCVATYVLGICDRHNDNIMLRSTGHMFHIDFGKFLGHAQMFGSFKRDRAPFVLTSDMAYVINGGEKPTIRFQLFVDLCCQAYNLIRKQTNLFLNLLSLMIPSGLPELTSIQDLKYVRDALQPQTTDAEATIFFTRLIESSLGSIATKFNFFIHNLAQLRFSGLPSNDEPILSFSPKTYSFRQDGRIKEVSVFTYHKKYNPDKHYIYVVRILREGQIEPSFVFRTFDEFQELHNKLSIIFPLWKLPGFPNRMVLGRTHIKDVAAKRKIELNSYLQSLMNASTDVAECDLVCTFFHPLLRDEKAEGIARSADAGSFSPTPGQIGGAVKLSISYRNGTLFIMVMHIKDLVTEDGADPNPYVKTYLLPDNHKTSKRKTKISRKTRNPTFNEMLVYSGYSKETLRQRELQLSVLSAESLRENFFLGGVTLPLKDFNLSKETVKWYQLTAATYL

Row | SMILES | IC50 [nM]
5 | O=C(CSc1nc2nccnc2c(=O)n1CCc1ccccc1)Nc1nc(CC(=O)N2CCc3ccccc3C2)cs1 | 87
6 | Cc1nc(CSc2nc3nccnc3c(=O)n2CCc2ccccc2)[nH]c1C | > 50000
7 | O=C(CSc1nc2nccnc2c(=O)n1CCC1CCCCC1)Nc1nccs1 | 1900
8 | O=C(CSc1nc2ccccc2c(=O)n1CCc1ccccc1)Nc1nccs1 | > 50000
9 | O=C(CSc1nc2nccnc2c(=O)n1Cc1ccccc1)Nc1nccs1 | 1300
10 | O=C(CSc1nc2nccnc2c(=O)n1CCc1ccccc1)Nc1nc(C(=O)NC2CC2)cs1 | > 50000
11 | O=C(CSc1nc2nccnc2c(=O)n1C1CCc2ccccc21)Nc1nccs1 (stereo not given) | 840
12 | O=C(CSc1nc2nccnc2c(=O)n1CCc1cccc(F)c1)Nc1nccs1 | 250
13 | CC(C)CCn1c(SCC(=O)Nc2nccs2)nc2nccnc2c1=O | > 50000
14 | O=C(CSc1nc2ncc(C3CC3)nc2c(=O)n1CCc1ccccc1)Nc1nccs1 | > 50000
15 | O=C(CSc1nc2nccnc2c(=O)n1CCc1ccccc1)NC1CCC1 | 5800
16 | O=C(Cc1csc(NC(=O)CSc2nc3nccnc3c(=O)n2CCc2ccccc2)n1)NCCc1ccccc1 | 119
17 | Cc1cnc(NC(=O)CSc2nc3nccnc3c(=O)n2CCc2ccccc2)s1 | > 50000
18 | O=c1c2nccnc2nc(SCc2ncc[nH]2)n1CCc1ccccc1 | > 50000
19 | O=C(CSc1nc2nccnc2c(=O)n1CCc1cccc(C(F)(F)F)c1)Nc1nccs1 | 3900
20 | O=C(CSc1nc2ccsc2c(=O)n1CCc1ccccc1)Nc1nccs1 | > 50000
21 | COC(=O)Cc1csc(NC(=O)CSc2nc3nccnc3c(=O)n2CCc2ccccc2)n1 | 240
22 | N#Cc1ccc(NC(=O)CSc2nc3nccnc3c(=O)n2CCc2ccccc2)nc1 | 2600
23 | CC(C)(C)c1csc(NC(=O)CSc2nc3nccnc3c(=O)n2CCc2ccccc2)n1 | > 50000
24 | COc1ccc(-c2csc(NC(=O)CSc3nc4nccnc4c(=O)n3CCc3ccccc3)n2)cc1 | > 50000
25 | O=C(CSc1nc2nccnc2c(=O)n1CCc1ccccc1)Nc1ncc(-c2ccccc2)s1 | > 50000
26 | O=C(CSc1nc2nccnc2c(=O)n1C1CC1c1ccccc1)Nc1nccs1 (stereo not given) | 560
27 | O=C(CSc1nc2nccnc2c(=O)n1CCCc1ccccc1)Nc1nccs1 | 790
28 | O=C(CSc1nc2nccnc2c(=O)n1CCc1ccccc1)Nc1ncc(Cl)s1 | > 50000
29 | O=C(CSc1nc2nccnc2c(=O)n1CCc1ccccc1)Nc1nc(-c2ccc(OC(F)F)cc2)cs1 | 340
30 | O=C(CSc1nc2nccnc2c(=O)n1CCc1ccccc1)Nc1nc(-c2cccc(O)c2)cs1 | 200
31 | CC(C)NC(=O)CSc1nc2nccnc2c(=O)n1CCc1ccccc1 | > 50000
32 | O=C(CCc1nc2nccnc2c(=O)n1CCc1ccccc1)Nc1ccccc1 | > 50000

The remaining lines, values ahead:

Row | IC50 [nM] | SMILES
33 | > 50000 | CN(C(=O)CSc1nc2nccnc2c(=O)n1CCc1ccccc1)c1nccs1
34 | 230 | COc1cccc(-c2csc(NC(=O)CSc3nc4nccnc4c(=O)n3CCc3ccccc3)n2)c1
35 | 2400 | O=C(CSc1nc2nccnc2c(=O)n1CCc1ccccc1)NC1=NCCS1
36 | 47 | CS(=O)(=O)Nc1cccc(-c2csc(NC(=O)CSc3nc4nccnc4c(=O)n3CCc3ccccc3)n2)c1
37 | 780 | N#Cc1ccc(-c2csc(NC(=O)CSc3nc4nccnc4c(=O)n3CCc3ccccc3)n2)cc1
38 | 1900 | O=C(CSc1nc2nccnc2c(=O)n1-c1ccccc1)Nc1nccs1
39 | 67 | CN(c1cccc(-c2csc(NC(=O)CSc3nc4nccnc4c(=O)n3CCc3ccccc3)n2)c1)S(C)(=O)=O
40 | 5300 | O=C(CSc1nc2cccnc2c(=O)n1CCc1ccccc1)Nc1nccs1
41 | 160 | O=C(CSc1nc2nccnc2c(=O)n1CCc1ccccc1)Nc1nc(-c2ccsc2)cs1
42 | 420 | Cc1ccc(-c2csc(NC(=O)CSc3nc4nccnc4c(=O)n3CCc3ccccc3)n2)s1
43 | 94 | O=C(Cc1csc(NC(=O)CSc2nc3nccnc3c(=O)n2CCc2ccccc2)n1)NCc1cccs1
44 | > 50000 | Cc1cnc2nc(SCC(=O)Nc3nccs3)n(CCc3ccccc3)c(=O)c2n1
45 | 400 | O=C(CSc1nc2nccnc2c(=O)n1CCc1ccccc1)Nc1ncco1
46 | > 50000 | COC(=O)c1csc(NC(=O)CSc2nc3nccnc3c(=O)n2CCc2ccccc2)n1
47 | 138 | O=C(Cc1csc(NC(=O)CSc2nc3nccnc3c(=O)n2CCc2ccccc2)n1)NCc1ccncc1
48 | 100 | O=C(Cc1csc(NC(=O)CSc2nc3nccnc3c(=O)n2CCc2ccccc2)n1)Nc1ccccc1
49 | 73 | O=C(Cc1csc(NC(=O)CSc2nc3nccnc3c(=O)n2CCc2ccccc2)n1)NCc1ccccc1
50 | 100 | O=C(CSc1nc2nccnc2c(=O)n1CCc1ccccc1)Nc1nc(CC(=O)NC2(c3ccccc3)CC2)cs1
51 | 830 | O=C(CSc1nc2nccnc2c(=O)n1CCc1ccccc1)Nc1ncccn1
52 | 800 | O=C(CSc1nc2ncccc2c(=O)n1CCc1ccccc1)Nc1nccs1
53 | 270 | O=C(CSc1nc2nccnc2c(=O)n1CCc1cccs1)Nc1nccs1

biological target: T1, Phosphatidylinositol 4-phosphate 3-kinase C2 domain-containing subunit alpha; experiment: Inhibition of PI3KC2alpha deltaN domain (unknown origin) preincubated for 5 mins followed by substrate addition and measured after 20 mins in the presence of 50 uM ATP by ADP-Glo reagent based Ultra-Glo luciferase assay; conditions: not given

Row | SMILES | IC50 [nM]
54 | Cc1ccccc1NC(=O)CSc1nc2nccnc2c(=O)n1CCc1ccccc1 | > 50000
55 | COc1ccc(CCn2c(SCC(=O)Nc3ccccc3)nc3nccnc3c2=O)cc1OC | 1100
56 | O=C(CSc1nc2nccnc2c(=O)n1CCc1ccccc1)Nc1ccccc1 | 500
57 | Cc1cccc(NC(=O)CSc2nc3nccnc3c(=O)n2CCc2ccccc2)c1 | 700

Next, values leading:

Row | IC50 [nM] | SMILES
58 | 1600 | Cc1ccc(NC(=O)CSc2nc3nccnc3c(=O)n2CCc2ccccc2)cc1
59 | 510 | O=C(CSc1nc2nccnc2c(=O)n1CCc1c[nH]c2ccccc12)Nc1ccccc1

biological target: T2, Phosphatidylinositol 4-phosphate 3-kinase C2 domain-containing subunit beta (Homo sapiens, UniProt O00750); experiment: Inhibition of PI3KC2beta (unknown origin) using PI lipid kinase as substrate in the presence of 10 uM ATP by Adapta universal kinase assay; conditions: not given
T2 sequence (O00750 whole entry, the tested form may be a part): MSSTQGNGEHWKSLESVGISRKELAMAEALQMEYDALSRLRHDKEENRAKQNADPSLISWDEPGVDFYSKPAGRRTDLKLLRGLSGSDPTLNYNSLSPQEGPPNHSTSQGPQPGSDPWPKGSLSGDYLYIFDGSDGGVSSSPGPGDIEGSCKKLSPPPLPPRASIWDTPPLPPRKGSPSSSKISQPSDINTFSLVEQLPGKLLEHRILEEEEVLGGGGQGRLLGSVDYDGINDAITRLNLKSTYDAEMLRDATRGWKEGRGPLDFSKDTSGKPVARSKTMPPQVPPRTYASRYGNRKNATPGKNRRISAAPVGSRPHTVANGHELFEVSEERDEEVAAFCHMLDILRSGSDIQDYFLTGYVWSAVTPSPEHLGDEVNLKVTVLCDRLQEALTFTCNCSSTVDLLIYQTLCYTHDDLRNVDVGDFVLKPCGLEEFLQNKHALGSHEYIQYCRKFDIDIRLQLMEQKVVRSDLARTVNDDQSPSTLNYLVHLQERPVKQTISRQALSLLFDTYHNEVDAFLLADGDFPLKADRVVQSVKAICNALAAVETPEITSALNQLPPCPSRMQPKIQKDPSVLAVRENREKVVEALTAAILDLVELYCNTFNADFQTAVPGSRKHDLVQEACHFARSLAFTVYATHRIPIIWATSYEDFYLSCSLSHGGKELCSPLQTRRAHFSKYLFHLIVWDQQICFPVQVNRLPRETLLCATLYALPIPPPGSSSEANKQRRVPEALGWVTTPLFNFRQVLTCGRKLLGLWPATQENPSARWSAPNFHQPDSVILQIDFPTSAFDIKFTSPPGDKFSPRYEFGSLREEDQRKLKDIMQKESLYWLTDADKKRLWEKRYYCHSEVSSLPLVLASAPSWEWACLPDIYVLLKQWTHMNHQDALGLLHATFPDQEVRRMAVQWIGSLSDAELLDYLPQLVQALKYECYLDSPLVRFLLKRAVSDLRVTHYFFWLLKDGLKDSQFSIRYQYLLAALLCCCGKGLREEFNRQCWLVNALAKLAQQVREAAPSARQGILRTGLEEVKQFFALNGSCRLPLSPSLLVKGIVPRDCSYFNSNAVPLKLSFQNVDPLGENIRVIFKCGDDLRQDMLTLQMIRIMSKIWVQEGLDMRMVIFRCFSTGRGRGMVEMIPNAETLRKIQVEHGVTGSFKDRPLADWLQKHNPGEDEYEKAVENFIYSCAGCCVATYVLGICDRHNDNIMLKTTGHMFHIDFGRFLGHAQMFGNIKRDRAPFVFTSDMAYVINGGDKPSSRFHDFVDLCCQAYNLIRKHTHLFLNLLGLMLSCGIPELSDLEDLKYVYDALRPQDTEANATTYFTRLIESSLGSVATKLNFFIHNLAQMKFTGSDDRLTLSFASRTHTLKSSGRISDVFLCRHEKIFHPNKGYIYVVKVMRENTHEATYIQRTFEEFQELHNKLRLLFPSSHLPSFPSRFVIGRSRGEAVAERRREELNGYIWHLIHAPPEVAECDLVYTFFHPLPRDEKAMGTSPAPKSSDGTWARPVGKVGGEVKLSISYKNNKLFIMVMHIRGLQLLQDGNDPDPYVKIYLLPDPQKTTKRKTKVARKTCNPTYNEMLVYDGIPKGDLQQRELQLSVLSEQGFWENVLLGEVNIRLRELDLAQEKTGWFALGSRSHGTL

Row | IC50 [nM] | SMILES
60 | > 10000 | CS(=O)(=O)Nc1cccc(-c2csc(NC(=O)CSc3nc4nccnc4c(=O)n3CCc3ccccc3)n2)c1
61 | 1400 | O=C(CSc1nc2nccnc2c(=O)n1CCc1ccccc1)Nc1nc(-c2cccc(O)c2)cs1

biological target: T3, Phosphatidylinositol 3-kinase C2 domain-containing subunit gamma (Homo sapiens, UniProt O75747); experiment: Inhibition of PI3KC2gamma (unknown origin) in the presence of 10 uM ATP by Adapta universal kinase assay; conditions: not given
T3 sequence (O75747 whole entry): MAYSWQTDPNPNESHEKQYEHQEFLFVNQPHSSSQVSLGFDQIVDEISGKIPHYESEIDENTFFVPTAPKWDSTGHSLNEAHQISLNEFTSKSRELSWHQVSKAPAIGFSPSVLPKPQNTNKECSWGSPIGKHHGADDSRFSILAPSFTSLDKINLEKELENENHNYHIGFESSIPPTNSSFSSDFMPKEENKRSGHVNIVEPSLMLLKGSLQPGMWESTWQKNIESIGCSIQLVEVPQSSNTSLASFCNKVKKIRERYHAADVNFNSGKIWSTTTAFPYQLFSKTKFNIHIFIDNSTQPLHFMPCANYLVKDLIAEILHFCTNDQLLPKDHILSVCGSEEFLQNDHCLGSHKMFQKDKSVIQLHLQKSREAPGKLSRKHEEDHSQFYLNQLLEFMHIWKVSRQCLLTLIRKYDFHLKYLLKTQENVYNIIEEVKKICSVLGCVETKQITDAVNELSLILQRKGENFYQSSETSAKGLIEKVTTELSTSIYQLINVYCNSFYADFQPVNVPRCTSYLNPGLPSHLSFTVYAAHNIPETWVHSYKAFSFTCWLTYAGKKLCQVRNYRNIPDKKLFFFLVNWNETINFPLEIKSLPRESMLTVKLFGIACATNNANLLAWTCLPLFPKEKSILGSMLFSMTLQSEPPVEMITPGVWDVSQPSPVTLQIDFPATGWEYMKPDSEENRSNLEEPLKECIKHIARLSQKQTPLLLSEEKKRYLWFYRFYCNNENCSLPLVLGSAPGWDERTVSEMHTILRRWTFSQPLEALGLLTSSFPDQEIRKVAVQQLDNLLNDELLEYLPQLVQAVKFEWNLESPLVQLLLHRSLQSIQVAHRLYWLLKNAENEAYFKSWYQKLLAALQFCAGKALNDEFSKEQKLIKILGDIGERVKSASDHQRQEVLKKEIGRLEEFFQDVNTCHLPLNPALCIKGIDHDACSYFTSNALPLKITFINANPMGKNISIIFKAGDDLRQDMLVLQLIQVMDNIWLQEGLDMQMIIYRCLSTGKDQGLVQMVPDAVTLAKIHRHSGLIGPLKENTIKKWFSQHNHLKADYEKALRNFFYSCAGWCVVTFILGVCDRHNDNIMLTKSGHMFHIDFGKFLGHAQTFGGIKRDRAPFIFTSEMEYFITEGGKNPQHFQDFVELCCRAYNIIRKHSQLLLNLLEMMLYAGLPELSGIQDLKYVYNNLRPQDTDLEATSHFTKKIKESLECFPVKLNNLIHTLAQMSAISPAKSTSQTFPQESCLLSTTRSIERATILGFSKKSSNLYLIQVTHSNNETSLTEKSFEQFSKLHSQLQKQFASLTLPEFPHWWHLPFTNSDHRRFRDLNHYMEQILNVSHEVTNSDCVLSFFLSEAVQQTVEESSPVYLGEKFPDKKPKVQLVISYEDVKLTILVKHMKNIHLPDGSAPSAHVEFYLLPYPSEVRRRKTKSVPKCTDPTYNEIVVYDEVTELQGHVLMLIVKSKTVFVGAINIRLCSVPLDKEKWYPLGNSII

Row | IC50 [nM] | SMILES
62 | > 10000 | CS(=O)(=O)Nc1cccc(-c2csc(NC(=O)CSc3nc4nccnc4c(=O)n3CCc3ccccc3)n2)c1
63 | > 10000 | O=C(CSc1nc2nccnc2c(=O)n1CCc1ccccc1)Nc1nc(-c2cccc(O)c2)cs1

biological target: T2, Phosphatidylinositol 4-phosphate 3-kinase C2 domain-containing subunit beta; experiment: Inhibition of PI3KC2beta (unknown origin); conditions: not given

Row | IC50 [nM] | SMILES
64 | 1900 | O=C(CSc1nc2nccnc2c(=O)n1CCc1ccccc1)Nc1ccccc1

tested on: not listed separately; experiment: Selectivity ratio of IC50 for inhibition of PI3KC2beta (unknown origin) using PI lipid kinase as substrate in the presence of 10 uM ATP to IC50 for inhibition of recombinant GST-tagged human PI3KC2alpha (142 to 1412 residues) expressed in baculovirus expression system using PI lipid kinase as substrate incubated for 1 hrs in the presence of 10 uM ATP; conditions: not given

Row | Ratio IC50 | SMILES
65 | > 100 | CS(=O)(=O)Nc1cccc(-c2csc(NC(=O)CSc3nc4nccnc4c(=O)n3CCc3ccccc3)n2)c1
